Experimental data from paper PMC11822212, “High-throughput screening identifies Aurora kinase B as a critical therapeutic target for Merkel cell carcinoma” (Nature Communications, 2025).
Values joined by “and” are separate entries in the source; they are usually repeats but may differ in a detail not shown here. Equal entries are not always repeated. Where two headings read alike, the source gives them in different places.

Assays:
MKL-1 cells (VP-MCC) = experiment: qHTS cell viability (CellTiter-Glo, 72 h; primary and follow-up small molecule screen); type: cell-based, human
[1] = tested on: VN-MCC cell lines (MCC13, MCC26, UISO); experiment: qHTS cell viability, VN-MCC cell lines as a group (mean AUC, VN.MCC.avg); type: cell-based, human
[2] = tested on: six MCC cell lines and four control cell lines; experiment: qHTS cell viability, all 10 cell lines screened; type: cell-based
MCC13 cells (VN-MCC) = experiment: qHTS cell viability (CellTiter-Glo, 72 h; primary and follow-up small molecule screen); type: cell-based, human
[3] = tested on: MCC cell lines (WAGA, MKL-1, MKL-2, MCC13, MCC26, UISO); experiment: qHTS cell viability, all six MCC cell lines as a group (mean AUC, MCC.avg); type: cell-based, human
WAGA cells (VP-MCC) = experiment: qHTS cell viability (CellTiter-Glo, 72 h; primary and follow-up small molecule screen); type: cell-based, human
MCC26 cells (VN-MCC) = experiment: as above; type: cell-based, human
HACAT cells = experiment: qHTS cell viability (CellTiter-Glo, 72 h; primary screen), control cell line; type: cell-based, human
[4] = tested on: control cell lines (HACAT, HEK293T, CRL-7250, NIH-3T3); experiment: qHTS cell viability, control cell lines as a group (mean AUC, Control.avg); type: cell-based
NIH-3T3 cells = experiment: qHTS cell viability (CellTiter-Glo, 72 h; primary screen), control cell line; type: cell-based, mouse
[5] = tested on: VP-MCC cell lines (WAGA, MKL-1, MKL-2); experiment: qHTS cell viability, VP-MCC cell lines as a group (mean AUC, VP.MCC.avg); type: cell-based, human
HEK293T cells = experiment: qHTS cell viability (CellTiter-Glo, 72 h; primary screen), control cell line; type: cell-based, human
CRL-7250 cells = experiment: as above; type: cell-based
MKL-2 cells (VP-MCC) = experiment: qHTS cell viability (CellTiter-Glo, 72 h; primary and follow-up small molecule screen); type: cell-based, human
UISO cells (VN-MCC) = experiment: as above; type: cell-based, human
[6] = NPC library, qHTS dose-response AUC, MKL1
[7] = NPC library, mean AUC of VN-MCC cell lines
[8] = NPC library, qHTS dose-response AUC, MCC13
[9] = NPC library, mean AUC of six MCC cell lines
[10] = NPC library, qHTS dose-response AUC, WAGA
[11] = NPC library, qHTS dose-response AUC, HACAT control
[12] = NPC library, mean AUC of control cell lines
[13] = NPC library, qHTS dose-response AUC, NIH3T3 control
[14] = NPC library, qHTS dose-response AUC, CRL7250 control
[15] = NPC library, qHTS dose-response AUC, MKL2
[16] = NPC library, qHTS dose-response AUC, UISO
[17] = NPC library, 8-point DRC, area under dose-response curve
[18] = NPC library, 8-point DRC, control cell line

C[C@H](CN1CCOCC1)C(C(=O)N1CCCC1)(c1ccccc1)c1ccccc1.O=C(O)C(O)C(O)C(=O)O [Dextromoramide tartrate]
MKL1_AUC (MKL-1 cells (VP-MCC)): 389.502 | Control-VN-MCC [1]: 17.1819 | VN-MCC_Avg_AUC [1]: 445.614 | Control-MCC [2]: 44.5539 | MCC13_AUC (MCC13 cells (VN-MCC)): 446.289 | MCC_Avg_AUC [3]: 418.242 | WAGA_AUC (WAGA cells (VP-MCC)): 399.942 | MCC26_AUC (MCC26 cells (VN-MCC)): 445.292 | HACAT_AUC (HACAT cells): 472.266 | Control_Avg_AUC [4]: 462.795 | NIH3T3_AUC (NIH-3T3 cells): 477.478 | Control-VP-MCC [5]: 71.9259 | VP-MCC_Avg_AUC [5]: 390.87 | HEK293T_AUC (HEK293T cells): 429.542 | CRL7250_AUC (CRL-7250 cells): 471.896 | MKL2_AUC (MKL-2 cells (VP-MCC)): 383.165 | UISO_AUC (UISO cells (VN-MCC)): 445.259

OCCN1CCN(CCCN2c3ccccc3Sc3ccc(C(F)(F)F)cc32)CC1 [Fluphenazine]
MKL1_AUC (MKL-1 cells (VP-MCC); [6]): 435.034 | VN-MCC_Avg_AUC [1, 7]: 431.018 | Control-VN-MCC ([1]; NPC library, therapeutic window: Control avg AUC minus VN-MCC avg AUC): 42.343 | Control-MCC ([2]; NPC library, therapeutic window: Control avg AUC minus MCC avg AUC): 46.1748 | MCC13_AUC (MCC13 cells (VN-MCC); [8]): 444.309 | MCC_Avg_AUC [3, 9]: 427.186 | WAGA_AUC (WAGA cells (VP-MCC); [10]): 435.377 | MCC26_AUC (MCC26 cells (VN-MCC); NPC library; qHTS dose-response AUC, MCC26): 425.402 | HACAT_AUC (HACAT cells; [11]): 491.426 | Control_Avg_AUC [4, 12]: 473.361 | NIH3T3_AUC (NIH-3T3 cells; [13]): 476.772 | VP-MCC_Avg_AUC ([5]; NPC library, mean AUC of VP-MCC cell lines): 423.354 | Control-VP-MCC ([5]; NPC library, therapeutic window: Control avg AUC minus VP-MCC avg AUC): 50.0066 | HEK293T_AUC (HEK293T cells; NPC library; qHTS dose-response AUC, HEK293T control): 438.571 | CRL7250_AUC (CRL-7250 cells; [14]): 486.675 | MKL2_AUC (MKL-2 cells (VP-MCC); [15]): 399.652 | UISO_AUC (UISO cells (VN-MCC); [16]): 423.342

CSc1ccc2c(c1)N(CCC1CCCCN1C)c1ccccc1S2 (stereo not drawn) [Thioridazine]
MKL1_AUC (MKL-1 cells (VP-MCC); [17]): 412.834 | MKL1_AUC (MKL-1 cells (VP-MCC); [6]): 412.834 | MKL1_AUC (MKL-1 cells (VP-MCC); area under the dose-response curve, MKL-1 cells, AUC<450 = reduced viability): 412.834 | Control-VN-MCC ([1]; Control AUC minus VN-MCC AUC): 56.3901 | Control-VN-MCC ([1]; NPC library, Control AUC minus VN-MCC AUC (therapeutic window)): 56.3901 | VN-MCC_Avg_AUC [1, 7]: 403.119 | Control-MCC ([2]; NPC library, Control AUC minus MCC AUC (therapeutic window)): 60.2868 | MCC13_AUC (MCC13 cells (VN-MCC); [17]): 405.187 | MCC13_AUC (MCC13 cells (VN-MCC); [8]): 405.187 | MCC13_AUC (MCC13 cells (VN-MCC); area under the dose-response curve, MCC13 cells, AUC<450 = reduced viability): 405.187 | MCC_Avg_AUC ([3]; NPC library, mean AUC of all 6 MCC cell lines): 399.222 | MCC_Avg_AUC [3, 9]: 399.222 | WAGA_AUC (WAGA cells (VP-MCC); [17]): 416.169 | WAGA_AUC (WAGA cells (VP-MCC); [10]): 416.169 | WAGA_AUC (WAGA cells (VP-MCC); area under the dose-response curve, WAGA cells, AUC<450 = reduced viability): 416.169 | MCC26_AUC (MCC26 cells (VN-MCC); [17]): 403.828 | MCC26_AUC (MCC26 cells (VN-MCC); NPC library, qHTS dose-response AUC, MCC26): 403.828 | MCC26_AUC (MCC26 cells (VN-MCC); area under the dose-response curve, MCC26 cells; AUC<450 = reduced viability): 403.828 | HACAT_AUC (HACAT cells; [18]): 453.674 | HACAT_AUC (HACAT cells; [11]): 453.674 | HACAT_AUC (HACAT cells; area under the dose-response curve, HACAT control cells, AUC<450 = reduced viability): 453.674 | Control_Avg_AUC [4, 12]: 459.509 | NIH3T3_AUC (NIH-3T3 cells; [18]): 457.937 | NIH3T3_AUC (NIH-3T3 cells; [13]): 457.938 | NIH3T3_AUC (NIH-3T3 cells; area under the dose-response curve, NIH3T3 control cells, AUC<450 = reduced viability): 457.938 | Control-VP-MCC ([5]; Control AUC minus VP-MCC AUC): 64.1836 | Control-VP-MCC ([5]; NPC library, Control AUC minus VP-MCC AUC (therapeutic window)): 64.1836 | HEK293T_AUC (HEK293T cells; [18]): 452.051 | HEK293T_AUC (HEK293T cells; NPC library, qHTS dose-response AUC, HEK293T control): 452.051 | HEK293T_AUC (HEK293T cells; area under the dose-response curve, HEK293T control cells; AUC<450 = reduced viability): 452.051 | CRL7250_AUC (CRL-7250 cells; [18]): 474.374 | CRL7250_AUC (CRL-7250 cells; [14]): 474.374 | CRL7250_AUC (CRL-7250 cells; area under the dose-response curve, CRL7250 control cells, AUC<450 = reduced viability): 474.374 | MKL2_AUC (MKL-2 cells (VP-MCC); [17]): 356.973 | MKL2_AUC (MKL-2 cells (VP-MCC); [15]): 356.974 | MKL2_AUC (MKL-2 cells (VP-MCC); area under the dose-response curve, MKL-2 cells, AUC<450 = reduced viability): 356.974 | UISO_AUC (UISO cells (VN-MCC); [17]): 400.342 | UISO_AUC (UISO cells (VN-MCC); [16]): 400.342 | UISO_AUC (UISO cells (VN-MCC); area under the dose-response curve, UISO cells, AUC<450 = reduced viability): 400.342

CC(=O)OC1(c2ccccc2)CCN(CCc2ccccc2)CC1
MKL1_AUC (MKL-1 cells (VP-MCC)): 375.288 | Control-VN-MCC [1]: 54.768 | VN-MCC_Avg_AUC [1]: 409.79 | Control-MCC [2]: 68.5641 | MCC13_AUC (MCC13 cells (VN-MCC)): 419.397 | MCC_Avg_AUC [3]: 395.993 and 395.994 | WAGA_AUC (WAGA cells (VP-MCC)): 388.929 | MCC26_AUC (MCC26 cells (VN-MCC)): 420.097 | HACAT_AUC (HACAT cells): 477.567 | Control_Avg_AUC [4]: 464.558 | NIH3T3_AUC (NIH-3T3 cells): 473.448 | Control-VP-MCC [5]: 82.3602 | VP-MCC_Avg_AUC [5]: 382.197 | HEK293T_AUC (HEK293T cells): 449.554 | CRL7250_AUC (CRL-7250 cells): 457.662 | MKL2_AUC (MKL-2 cells (VP-MCC)): 382.375 | UISO_AUC (UISO cells (VN-MCC)): 389.875
